From patent US20220095617A1, “PLANT GROWTH REGULATING AGENT” (IDEMITSU KOSAN CO.,LTD., priority 2019, published 2022)

Legend:
Assay type in all cases: in vivo
Cabbage (Okina) seeds = test: Example 6: High-temperature stress Petri dish test (cabbage seeds); settings: for Germination rate, Increase rate / Root length, Increase rate: non-addition group = 100.0; for Root length, Average: after high-temperature treatment; for Germination rate, Average: seeds 52° C. hot water 25 minutes, 23° C. 4 days
Procedure: (§1) Cabbage (Okina, Takii & Co., Ltd.) seeds were soaked in hot water at 52° C. for 25 minutes to perform high-temperature treatment. […] A group similarly soaked in distilled water was provided as a non-addition group. After the soaking treatment, the seeds were dried in air, and then 20 seeds were sown on each of shallow Petri dishes in which qualitative filter paper was placed. To the filter paper in each Petri dish, 3 mL of distilled water was uniformly added dropwise. […] For each group, three measurement results were obtained for the germination rate (N=3), and 15 measurement results were obtained for the root length (N=15).

lettuce (Green Wave) [1] = test: Example 22: pH stress Petri dish test (lettuce); settings: for Root length, Increase rate: non-addition group = 100.0
lettuce (Green Wave) [2] = test: Example 3: High-temperature stress Petri dish test (lettuce), blending with β-carotene; settings: 0.1 ppm
Rice (Koshihikari) seeds = test: Example 5: High-temperature stress Petri dish test (rice seeds); settings: for Germination rate, Increase rate: non-addition group = 100.0; for Germination rate, Average: seeds 65° C. hot water 10 minutes, 28° C. 5 days
Procedure: as §1, with “Rice (Koshihikari)” for “Cabbage (Okina, Takii & Co., Ltd.)”, “65°” for “52°”, “10” for “25”, “5” for “3”, “(N=3).” for “for the germination rate (N=3), and 15 measurement results were obtained for the root length (N=15).”

Dent corn (34V52) = test: Example 14: Growth-promoting effect (dent corn); settings: for Increase/decrease of above-ground part / Increase/decrease of underground part: non-addition group = 100%; for Weight of above-ground part FW / Weight of underground part FW: 25° C., 14 days
Procedure: (§2) Dent corn (34V52) was sown on pots filled with seedling culture soil (manufactured by Katakura & Co-op Agri Corporation; Kumiai seedling culture soil for gardening Genkikun No. 1) (soil volume, 130 ml). After confirmation of the germination, drenching treatment was carried out with 5 ml each of dilutions of hesperidin prepared at final concentrations of 1 to 10 ppm (using water as the solvent). […]

Bent grass (Penncross) = test: Example 8: High-temperature stress pot test (bent grass); settings: for Weight of above-ground part, Increase rate: non-addition group = 100.0; for Weight of above-ground part, Average: greenhouse average daytime 50° C., 7 days, fresh weight
Procedure: Bent grass (Penncross, Snow Brand Seed Co., Ltd.) was uniformly sown on pots filled with seedling culture soil (manufactured by Katakura & Co-op Agri Corporation; Kumiai seedling culture soil for gardening Genkikun No. 1) (soil volume, 100 ml), and cultivated for 14 to 20 days, followed by evenly cutting the above-ground part to a length of about 1 cm on the day before application of hesperidin. […] A non-addition group was similarly subjected to drenching treatment using distilled water. High-temperature treatment was carried out by cultivation in a glass greenhouse (average daytime temperature, […]) for 7 days, and then the fresh weight of the above-ground part was evaluated. For each group, three measurement results were obtained (N=3).

[3] = system: Cucumber (Hanjirofushinari); test: Example 13: Salt stress pot test (cucumber); settings: foliar spraying 1 ppm (dilution of wettable powder formulation)
Procedure: Cucumber (Hanjirofushinari, Takii & Co., Ltd.) was sown on pots filled with seedling culture soil (manufactured by Katakura & Co-op Agri Corporation; Kumiai seedling culture soil for gardening Genkikun No. 1) (soil volume, 100 ml), and cultivated for 21 days. With a wettable powder formulation containing 1% hesperidin having the formulation composition shown in Table 11, a dilution was prepared such that the final concentration of hesperidin was 1 ppm. For each pot, 10 ml of the dilution was applied by foliar spraying. The cucumber was left to stand in a dilution whose final NaCl concentration was adjusted to 75 mM, and allowed to absorb water from the bottom. Cultivation was carried out in a greenhouse (20 to 25° C.) for 7 days, and then the fresh weight of the above-ground part was measured. For each group, six measurement results were obtained (N=6).

Wheat (Satonosora) = test: Example 15: Growth-promoting effect (wheat); settings: for Increase/decrease of above-ground part / Increase/decrease of underground part: non-addition group = 100%; for Weight of above-ground part FW / Weight of underground part FW: 25° C., 14 days
Procedure: as §2, with “Wheat (Satonosora) was” for “Dent corn (34V52) was”, “volume, 100” for “volume, 130”, “After […]” for “After confirmation”, “of 10” for “of 1”, “to 33” for “to 10”

lettuce (Green Wave) [4] = test: Example 16: Growth-promoting effect (lettuce, drenching treatment); settings: for Increase/decrease of above-ground part / Increase/decrease of underground part: non-addition group = 100%; for Weight of above-ground part FW / Weight of underground part FW: 25° C., 14 days
Procedure: Lettuce (Green Wave) was sown on a cell tray filled with seedling culture soil (manufactured by Nihon Hiryo Co., Ltd.; “Naebijin N100”). After the two leaf stage, the lettuce was transplanted to each pot (soil volume, 100 ml). […]

For COc1ccc([C@@H]2CC(=O)c3c(O)cc(O[C@@H]4O[C@H](CO[C@@H]5O[C@@H](C)[C@H](O)[C@@H](O)[C@H]5O)[C@@H](O)[C@H](O)[C@H]4O)cc3O2)cc1O [Hesperidin], the “Germination rate, Increase rate” value (Cabbage (Okina) seeds; 100 ppm) was 127.1%, the “Root length, Increase rate” value (Cabbage (Okina) seeds; 100 ppm) was 189.7% and the “Germination rate, Increase rate” value (Cabbage (Okina) seeds; 1000 ppm) was 150.3%. The “Root length, Increase rate” value (Cabbage (Okina) seeds; 1000 ppm) was 224.6%, the “Root length, Average” value (Cabbage (Okina) seeds; 100 ppm) was 43.6 mm and the “Root length, Average” value (Cabbage (Okina) seeds; 1000 ppm) was 51.6 mm. The “Germination rate, Average” value (Cabbage (Okina) seeds; then soaked at 100 ppm) was 66.2%, the “Germination rate, Average” value (Cabbage (Okina) seeds; then soaked at 1000 ppm) was 78.3% and the “Root length, Average” value (lettuce (Green Wave) [1]; Acid stress (pH 4), 0.1 ppm) was 17.69 mm. For the same compound, the “Root length, Increase rate” value (lettuce (Green Wave) [1]; Acid stress (pH 4), 0.1 ppm) was 121.9%, the “Root length, Average” value (lettuce (Green Wave) [1]; Acid stress (pH 4), 1 ppm) was 18.03 mm and the “Root length, Increase rate” value (lettuce (Green Wave) [1]; Acid stress (pH 4), 1 ppm) was 124.3%. For the same compound, the “Root length, Average” value (lettuce (Green Wave) [1]; Alkali stress (pH 9), 0.1 ppm) was 17.55 mm, the “Root length, Increase rate” value (lettuce (Green Wave) [1]; Alkali stress (pH 9), 0.1 ppm) was 114.1% and the “Root length, Average” value (lettuce (Green Wave) [1]; Alkali stress (pH 9), 1 ppm) was 17.40 mm. For the same compound, the “Root length, Increase rate” value (lettuce (Green Wave) [1]; Alkali stress (pH 9), 1 ppm) was 113.1%, the Root length (lettuce (Green Wave) [2]; High-temperature treatment (42° C., 1.5 hours)) was 15.0 mm and the Root length (lettuce (Green Wave) [2]; Normal cultivation) was 22.2 mm. For the same compound, the “Germination rate, Increase rate” value (Rice (Koshihikari) seeds; 1 ppm) was 131.5%, the “Germination rate, Increase rate” value (Rice (Koshihikari) seeds; 10 ppm) was 146.6% and the “Germination rate, Increase rate” value (Rice (Koshihikari) seeds; 100 ppm) was 134.0%. The “Germination rate, Average” value (Rice (Koshihikari) seeds; then soaked 1 hour at 1 ppm) was 77.3%, the “Germination rate, Average” value (Rice (Koshihikari) seeds; then soaked 1 hour at 10 ppm) was 86.2% and the “Germination rate, Average” value (Rice (Koshihikari) seeds; then soaked 1 hour at 100 ppm) was 78.8%. For the same compound, the “Increase/decrease of above-ground part” value (Dent corn (34V52); 1 ppm) was 114%, the “Increase/decrease of underground part” value (Dent corn (34V52); 1 ppm) was 126% and the “Increase/decrease of above-ground part” value (Dent corn (34V52); 3 ppm) was 111%. The “Increase/decrease of underground part” value (Dent corn (34V52); 3 ppm) was 123%, the “Increase/decrease of above-ground part” value (Dent corn (34V52); 10 ppm) was 104% and the “Increase/decrease of underground part” value (Dent corn (34V52); 10 ppm) was 103%. The “Weight of above-ground part FW” value (Dent corn (34V52); drenching 1 ppm) was 6.5 mg/individual, the “Weight of underground part FW” value (Dent corn (34V52); drenching 1 ppm) was 5.1 mg/individual and the “Weight of above-ground part FW” value (Dent corn (34V52); drenching 3 ppm) was 6.3 mg/individual. The “Weight of underground part FW” value (Dent corn (34V52); drenching 3 ppm) was 5.0 mg/individual, the “Weight of above-ground part FW” value (Dent corn (34V52); drenching 10 ppm) was 5.9 mg/individual and the “Weight of underground part FW” value (Dent corn (34V52); drenching 10 ppm) was 4.2 mg/individual. For the same compound, the “Weight of above-ground part, Increase rate” value (Bent grass (Penncross); 0.06 ppm) was 151.7%, the “Weight of above-ground part, Increase rate” value (Bent grass (Penncross); 0.6 ppm) was 162.2% and the “Weight of above-ground part, Average” value (Bent grass (Penncross); drenching 0.06 ppm) was 3.3 g. For the same compound, the “Weight of above-ground part, Average” value (Bent grass (Penncross); drenching 0.6 ppm) was 3.6 g, the “Death of the above-ground part (FIG. 1)” value (Bent grass (Penncross); groups subjected to drenching treatment (0.06 to 0.6 ppm), after high-temperature treatment) was “no death was found” and the “Fresh weight of above-ground part” value ([3]; Normal cultivation) was 4.2 g. For the same compound, the “Fresh weight of above-ground part” value ([3]; Salt treatment (75 mM NaCl, 7 days)) was 3.6 g, the “Increase/decrease of above-ground part” value (Wheat (Satonosora); 10 ppm) was 123% and the “Increase/decrease of underground part” value (Wheat (Satonosora); 10 ppm) was 107%. The “Increase/decrease of above-ground part” value (Wheat (Satonosora); 33 ppm) was 116%, the “Increase/decrease of underground part” value (Wheat (Satonosora); 33 ppm) was 104% and the “Weight of above-ground part FW” value (Wheat (Satonosora); drenching 10 ppm) was 364.9 mg/individual. For the same compound, the “Weight of underground part FW” value (Wheat (Satonosora); drenching 10 ppm) was 391.6 mg/individual, the “Weight of above-ground part FW” value (Wheat (Satonosora); drenching 33 ppm) was 345.4 mg/individual and the “Weight of underground part FW” value (Wheat (Satonosora); drenching 33 ppm) was 382.6 mg/individual. The “Increase/decrease of above-ground part” value (lettuce (Green Wave) [4]; 1 ppm) was 103%, the “Increase/decrease of underground part” value (lettuce (Green Wave) [4]; 1 ppm) was 115% and the “Increase/decrease of above-ground part” value (lettuce (Green Wave) [4]; 3 ppm) was 126%. The “Increase/decrease of underground part” value (lettuce (Green Wave) [4]; 3 ppm) was 119%, the “Increase/decrease of above-ground part” value (lettuce (Green Wave) [4]; 100 ppm) was 118% and the “Increase/decrease of underground part” value (lettuce (Green Wave) [4]; 100 ppm) was 123%. The “Weight of above-ground part FW” value (lettuce (Green Wave) [4]; drenching treatment 1 ppm) was 13.26 mg/individual, the “Weight of underground part FW” value (lettuce (Green Wave) [4]; drenching treatment 1 ppm) was 7.99 mg/individual and the “Weight of above-ground part FW” value (lettuce (Green Wave) [4]; drenching treatment 3 ppm) was 16.17 mg/individual. For the same compound, the “Weight of underground part FW” value (lettuce (Green Wave) [4]; drenching treatment 3 ppm) was 8.29 mg/individual, the “Weight of above-ground part FW” value (lettuce (Green Wave) [4]; drenching treatment 100 ppm) was 15.12 mg/individual and the “Weight of underground part FW” value (lettuce (Green Wave) [4]; drenching treatment 100 ppm) was 8.57 mg/individual.
